Values after ≈ are worked out from the molar mass of the structure shown.
Key:
[1] = tested on: laccase (LAC); details: read-out: KM (Michaelis–Menten constant); 0.1 M sodium-tartrate buffer pH 4, 440 nm, Lineweaver–Burk
Description: The reaction mixture was scanned to determine the λ max cha-racterizing the main reaction product od dye using a Cary 50 Bio spectrophotometer (Varian, Palo Alto, CA, USA).

[2] = Cyclic voltammetry of the ANS substrate; assay type: physicochemical; details: 1 mM substrate, 0.1 M sodium tartrate buffer pH 4.5
Procedure: All measurements were performed for the 1 mM substrate dissolved in 0.1 M sodium tartrate buffer at pH 4.5 in triplicate at room temperature 22 ± 3 °C. The potential was scanned with the scan speed of 50 mV/s from −400 to 1500 mV vs. Ag/AgCl/KClsat after holding the electrochemical system at the initial potential for 10 s.

[3] = tested on: Vibrio fisheri; assay: Environmental toxicity, 81.9% Basic Test Microtox protocol; assay type: cell-based; details: 5 min
Description: Toxicity was expressed as half maximal effective concentration (EC50) according to the 81.9% Basic Test Microtox protocol. All reagents and Vibrio […] bacterium were purchased from […]), the Polish representative of Modern Water Company (New Castle, DE, USA).

[4] = tested on: human normal colon epithelial cell line CCD-841 CoTr; assay: Cytotoxicity, LDH assay, colon epithelial cells; assay type: cell-based; details: after 24 h
Procedure: (§1) Cell cultures: The research was conducted on human normal colon epithelial cell line CCD-841 CoTr (ACCT, No. CRL-1807) and human normal colon fibroblast cell line CCD-18Co (ATCC, No. CRL-1459) obtained from the American Type Culture Collection (ATCC, Manassas, VA, USA). The cells were grown in a mixture of DMEM and RPMI 1640 media (1:1) containing 10% (v/v) of foetal bovine serum (FBS) and antibiotics (100 U/mL penicillin and 100 μg/mL streptomycin) and kept in standard conditions (at 37 °C in humidified atmosphere of 5% CO2). For the MTT and LDH tests, cells at the density of 1 × 10^5 cells /mL were seeded on 96-well plates. […] Lactate dehydrogenase(LDH) assay: This assay measures lactate dehydrogenase (LDH) released to the medium by cells with a damaged plasma membrane. […] Absorbance was recorded on a microplate reader (Spark, Tecan, Austria) at 490 nm with a reference wavelength at 690 nm. Results obtained from three independent experiments were reported as cell viability (%) calculated according to the formula: cell viability (%) = (100 − Abssample × Abscontrol^−1) × 100% All analyses were performed in triplicate and presented as mean ± SD. The IC50 value was calculated by nonlinear regression using a curve fitting program in GraphPad Prism 5.0.

[5] = tested on: human normal colon epithelial cell line CCD-841 CoTr; assay: Cytotoxicity, MTT assay, colon epithelial cells; assay type: cell-based; details: CCD-841, 24 h, read-out: IC50 Colon Epithelial Cells MTT
Procedure: (§2) Cell cultures: The research was conducted on human normal colon epithelial cell line CCD-841 CoTr (ACCT, No. CRL-1807) and human normal colon fibroblast cell line CCD-18Co (ATCC, No. CRL-1459) obtained from the American Type Culture Collection (ATCC, Manassas, VA, USA). The cells were grown in a mixture of DMEM and RPMI 1640 media (1:1) containing 10% (v/v) of foetal bovine serum (FBS) and antibiotics (100 U/mL penicillin and 100 μg/mL streptomycin) and kept in standard conditions (at 37 °C in humidified atmosphere of 5% CO2). For the MTT and LDH tests, cells at the density of 1 × 10^5 cells /mL were seeded on 96-well plates. […] MTT assay: This method is used to determine cell viability and proliferation. […] Then, to stop the reaction and dissolve the formazan crystals, 100 µL of a 10 % SDS solution in 0.01 N HCL was added. The following day, the absorbance was determined spectrophotometrically at 570 nm using a microplate reader (Spark, Tecan, Austria). Results obtained from three independent experiments were reported as cell viability (%) calculated according to the formula: cell viability (%) = (100 − Abssample × Abscontrol^−1) × 100% All analyses were performed in triplicate and presented as mean ± SD. The IC50 value was calculated by nonlinear regression using a curve fitting program in GraphPad Prism 5.0.

[6] = tested on: human normal colon fibroblast cell line CCD-18Co; assay: Cytotoxicity, LDH assay, fibroblasts; assay type: cell-based; details: after 24 h
Procedure: as §1

[7] = tested on: human normal colon fibroblast cell line CCD-18Co; assay: Cytotoxicity, MTT assay, fibroblasts; assay type: cell-based; details: 24 h, read-out: IC50 Fibroblasts MTT
Procedure: as §2

[8] = Cytotoxicity regardless of assay method and cells used; assay type: cell-based; details: human; regardless of the toxicity assay method and the cells used; read-out: IC50 (cytotoxicity), lowest value
Procedure: For the MTT and LDH tests, cells at the density of 1 × 10^5 cells /mL were seeded on 96-well plates. After 24 h incubation, the medium was replaced with a fresh one with 2% of FBS supplemented with ANS or not (control).
MTT assay: This method is used to determine cell viability and proliferation. It is based on the measurement of the oxidoreductive activity of mitochondria with the yellow dye 3-(4,5-dimethylthiazo-2-yl)-2,5-diphenyl-tetrazolium bromide (MTT) which is metabolised in living cells to purple formazan crystals. After 24 h incubation with the examined compounds, 25 µL of MTT (5 mg/mL) was introduced onto each well and incubated for 3 h. Then, to stop the reaction and dissolve the formazan crystals, 100 µL of a 10 % SDS solution in 0.01 N HCL was added. The following day, the absorbance was determined spectrophotometrically at 570 nm using a microplate reader (Spark, Tecan, Austria).
Results obtained from three independent experiments were reported as cell viability (%) calculated according to the formula: cell viability (%) = (100 − Abssample × Abscontrol^−1) × 100% […]

[9] = tested on: S. aureus ATCC 25923; assay: MIC and MBC determination (CLSI protocol), S. aureus; assay type: cell-based; details: Staphylococcus aureus, ATCC25923, read-out: MBC S. aureus
Procedure: (§3) The stock solutions (10 mg/mL) of the tested substances were prepared in distilled water and afterwards diluted to the appropriate concentration in Mueller–Hinton Bullion. In each well of a 96-well plate, 300 µL of the mixture was inoculated with 10 µL of the bacterial culture (final density~10^2 cfu/mL). […] Then, 10 µL of the suspension from each well was transferred to a fresh sterile medium and incubated for another 24 h at 37 °C. The lack of turbidity indicated bactericidal activity of the investigated substances and the MBC value was thus determined.

[10] = tested on: S. epidermidis ATCC 14990; assay: MIC and MBC determination (CLSI protocol), S. epidermidis; assay type: cell-based; details: Staphylococcus epidermidis, ATCC14990, read-out: MBC S. epidermidis
Procedure: as §3

[11] = ABTS assay (antioxidant); details: concentration reducing 50% of radicals
Procedure: ABTS assay: In this method, the ability of the tested dye to reduce the dark green ABTS radical cation (ABTS^●+) was evaluated. First, 5 mM phosphate buffer pH 7.4 (PBS) and 7.4 mM ABTS solution were prepared. During the ABTS solution preparation, ABTS was dissolved and ABTS^●+ was generated by reacting with K2S2O8 (2.4 mM final concentration) in a dark bottle at room temperature for 16–18 h. Next, the ABTS^●+ solution was diluted with PBS to an absorbance of 0.7 at 734 nm measured using a Tecan plate reader (Spark, Tecan, Austria). ABTS^●+ (990 µL) was added to the tested dye sample (10 µL) in a 96-well plate and incubated for 10 min at room temperature. The tested dye concentration was in the range from 0.01 to 1 mg/mL. Simultaneously, the negative control (XC) and the control of dye colour correction (XD) were incubated. The change in the absorbance of ABTS^●+ with the dye sample (XP) and controls were measured in the plate reader at 734 nm and the ABTS^●+ reduction rate (AR) was calculated according to the following equation: AR=(XC−(XP−XD)/XC)×100% All analyses allowing determination of antioxidative properties were performed in triplicate in room temperature 22 ± 3 °C. […] Trolox was used as positive controls for each technique.

[12] = DPPH assay (antioxidant); details: concentration reducing 50% of radicals
Procedure: DPPH assay: […] Then, 100 µL of the tested dye was added to a 96-well plate containing 100 µL of a freshly prepared DPPH solution in 95% ethanol. […] The mixture was incubated at room temperature for 20 min. The change in absorbance caused by the tested dyes (XP) and ultrapure water as a negative control (XC) was monitored at 515 nm using a multiplate reader (Spark, Tecan, Austria). Simultaneously, the absorbance of the dye at a wavelength of 515 nm was investigated as a control of the dye–colour correction (XD). The radical reduction rate (DR) was calculated according to the following equation: DR(%)=(XC−(XP−XD)/XC)×100% All analyses allowing determination of antioxidative properties were performed in triplicate in room temperature 22 ± 3 °C. […] Trolox was used as positive controls for each technique.

[13] = Chemiluminescence assay (luminol, antioxidant); details: concentration reducing 50% of radicals
Procedure: Chemiluminescence Assay: The assay of the antioxidant properties of the tested dyes was based on the measurement of luminol chemiluminescence induced by hydroxyl radicals in the Fe^2+-EDTA-H2O2-luminol system. […] Afterwards, the samples were placed in a Berthold–Lumat LB 9506 luminometer, and the solutions of reagents were added automatically as follows: 1.5 mM Fe^2+-EDTA (100 µL) and 4.4 mM H2O2 (100 µL). The chemiluminescence was measured with (I1) or without (I0) the addition of the tested dye. The inhibitory rate (IR) was calculated according to the following equation: IR(%)=(1−I1/Io)×100 All analyses allowing determination of antioxidative properties were performed in triplicate in room temperature 22 ± 3 °C. […] Trolox was used as positive controls for each technique.

[14] = Antioxidative potential over the three methods (ABTS, DPPH, luminol); details: range depending on the method used
Procedure: Chemiluminescence Assay: The assay of the antioxidant properties of the tested dyes was based on the measurement of luminol chemiluminescence induced by hydroxyl radicals in the Fe^2+-EDTA-H2O2-luminol system. […] Afterwards, the samples were placed in a Berthold–Lumat LB 9506 luminometer, and the solutions of reagents were added automatically as follows: 1.5 mM Fe^2+-EDTA (100 µL) and 4.4 mM H2O2 (100 µL). The chemiluminescence was measured with (I1) or without (I0) the addition of the tested dye. The inhibitory rate (IR) was calculated according to the following equation: IR(%)=(1−I1/Io)×100 DPPH assay: […] […] The change in absorbance caused by the tested dyes (XP) and ultrapure water as a negative control (XC) was monitored at 515 nm using a multiplate reader (Spark, Tecan, Austria). Simultaneously, the absorbance of the dye at a wavelength of 515 nm was investigated as a control of the dye–colour correction (XD). The radical reduction rate (DR) was calculated according to the following equation: DR(%)=(XC−(XP−XD)/XC)×100% ABTS assay: In this method, the ability of the tested dye to reduce the dark green ABTS radical cation (ABTS^●+) was evaluated. […] Next, the ABTS^●+ solution was diluted with PBS to an absorbance of 0.7 at 734 nm measured using a Tecan plate reader (Spark, Tecan, Austria). […]

O=S(=O)(O)c1cccc2cccc(Nc3ccccc3)c12 [ANS, 8-anilino-1-naphthalenesulfonic acid]
Km [1]: 435 µM
Eo vs. NHE (oxidation potential) [2]: 0.768 V
EC50 [3]: 19 µg/mL (≈ 63.5 µM)
IC50 [4]: 382 µg/mL (≈ 1280 µM)
IC50 [5]: 322 µg/mL (≈ 1080 µM)
IC50 [6]: 247 µg/mL (≈ 825 µM)
IC50 [7]: 295 µg/mL (≈ 985 µM)
IC50 at 24 h [8]: ≥ 247 µg/mL
MBC [9]: 400 µg/mL (≈ 1340 µM)
MBC [10]: 400 µg/mL (≈ 1340 µM)
IC50 ABTS [11]: 0.027 µg/mL (≈ 0.0902 µM)
IC50 DPPH [12]: 153 µg/mL (≈ 511 µM)
IC50 Luminol [13]: 6 µg/mL (≈ 20 µM)
IC50 values (antioxidative potential) [14]: 0.027 to 153 µg/mL

From publication PMC8780785 (Molecules, 2022)
